Measured values from the supplement of paper PMC10307832.

Legend:
Assay in all cases: relative viability (nuclei count vs DMSO), 5 days (fraction); higher = more cells survive
QS11 = compound: C1CC2=C(C1)C=C(C=C2)OC3=NC(=C4C(=N3)N(C=N4)CC5=CC=C(C=C5)C6=CC=CC=C6)N[C@@H](CC7=CC=CC=C7)CO [QS11]
Outline: (§1)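 After an overnight hold at 37 °C, lung cancer cell lines in 1536-well plates were pinned with five library-drug doses (not always all listed), each √10 from the next, on vehicle-anchored plates. The cells stayed 5 days without fresh medium, then a one-step fix, permeabilisation and Hoechst stain preceded 4× imaging and MetaXpress nuclear counts. A plate passed only with control CV under 25% and at least one doubling. Viability is the median, over plates, of treated-well nuclei relative to vehicle-well nuclei.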

Darinaparsin = compound: C[As](C)SC[C@H](NC(=O)CC[C@H](N)C(=O)O)C(=O)NCC(=O)O [Darinaparsin]
Outline: as §1

AZ628 = compound: CC1=C(C=C(C=C1)NC(=O)C2=CC(=CC=C2)C(C)(C)C#N)NC3=CC4=C(C=C3)N=CN(C4=O)C [AZ628]
Outline: as §1

QS11 + Foretinib = compound: C1CC2=C(C1)C=C(C=C2)OC3=NC(=C4C(=N3)N(C=N4)CC5=CC=C(C=C5)C6=CC=CC=C6)N[C@@H](CC7=CC=CC=C7)CO [QS11] + COc1cc2c(Oc3ccc(NC(=O)C4(C(=O)Nc5ccc(F)cc5)CC4)cc3F)ccnc2cc1OCCCN1CCOCC1 [Foretinib] (partner 0.25 µM)
Outline: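 One day after seeding in 1536-well plates, lung cancer cell lines were dosed by pin tool. Dosing was either single-drug or a fixed anchor-drug dose plus five library-drug doses (not always all listed) in √10 steps. After 5 days, nuclei were stained in one fix-and-stain step and counted on 4× images, and relative viability is the nuclei count of treated wells over that of vehicle wells, given as the median of duplicate plates.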

Cell Line | relative viability (QS11; 0.08 µM) | relative viability (QS11; 0.253 µM) | relative viability (QS11; 0.8 µM) | relative viability (QS11; 2.53 µM) | relative viability (QS11; 8 µM) | relative viability (Darinaparsin; 0.08 µM) | relative viability (Darinaparsin; 0.8 µM) | relative viability (Darinaparsin; 2.53 µM) | relative viability (Darinaparsin; 8 µM) | relative viability (AZ628; 0.08 µM) | relative viability (AZ628; 0.253 µM) | relative viability (AZ628; 0.8 µM) | relative viability (AZ628; 2.53 µM) | relative viability (AZ628; 8 µM) | relative viability (QS11 + Foretinib; first compound 0.08 µM) | relative viability (QS11 + Foretinib; first compound 0.253 µM) | relative viability (QS11 + Foretinib; first compound 0.8 µM) | relative viability (QS11 + Foretinib; first compound 2.53 µM) | relative viability (QS11 + Foretinib; first compound 8 µM)
HCC-44 | 1.07 | 0.913 | 0.735 | 0.969 | 0.83 | 0.964 | 0.957 | 0.987 | 0.996 | 1.02 | 1.03 | 0.988 | 0.987 | 0.984 | – | – | – | – | –
HCC-78 | 0.958 | 0.955 | 0.94 | 1.03 | 1.05 | 1 | 0.918 | 0.936 | 1.09 | 1.09 | 0.911 | 1.08 | 1.05 | 0.932 | 0.538 | 0.494 | 0.606 | 0.689 | 0.66
HCC-366 | 1.01 | 1.01 | – | 0.98 | 0.447 | 1.01 | 1.07 | 1.03 | 1.32 | 1.01 | 0.952 | 0.884 | 0.955 | 0.876 | 0.985 | 0.962 | – | 0.895 | 0.147
HCC-827 | 1 | 1.13 | 0.813 | 1.02 | 0.931 | 1.09 | 1.02 | 1.07 | 1.16 | 1.03 | 1.01 | 1.03 | 1.07 | 0.839 | 1.05 | 1.05 | 0.8 | 1.02 | 0.812
HOP-62 | 1.06 | 1.09 | 0.867 | 0.922 | 0.88 | 1.07 | 1.08 | 0.95 | 1.08 | 1.07 | 1.07 | 0.937 | 1.09 | 0.573 | 1.11 | 1.33 | 0.766 | 0.742 | 0.708
IA-LM | 1 | 1.1 | 0.576 | 0.902 | 0.996 | 1.16 | 1.05 | 1.16 | 1.12 | 1.15 | 0.871 | 0.589 | 0.607 | 0.266 | 1.22 | 1.15 | – | 1.12 | 0.969
LC-2-ad | 1.01 | 1.05 | 0.808 | 0.972 | 0.955 | 1.06 | 0.996 | 1.01 | 1.2 | 1.07 | 0.911 | 0.88 | 0.928 | 0.768 | 0.921 | 0.924 | 0.839 | 1.04 | 0.889
LCLC-103H | 1.01 | 1 | 0.749 | 0.988 | 1.05 | 1.15 | 0.923 | 0.976 | 1.15 | 0.99 | 0.891 | 1.07 | 0.998 | 0.903 | 0.526 | 0.883 | 0.672 | 0.7 | 0.784
LK-2 | 0.99 | 1.21 | 1.09 | 0.956 | 1.3 | 1.16 | 0.83 | 0.982 | 1.26 | 1.29 | 0.983 | 0.977 | 0.857 | 0.467 | 1.13 | 1.38 | 1.41 | 1.13 | 1.09
LOU-NH91 | 0.979 | 0.93 | 0.78 | 0.98 | 0.966 | 1.03 | 0.921 | 0.954 | 1.02 | 0.971 | 0.926 | 0.958 | 0.963 | 0.797 | 0.854 | 0.926 | 0.904 | 0.875 | 0.94
LU99A | 0.868 | 0.99 | 1.02 | 1.02 | 0.834 | 0.929 | 1.05 | 0.991 | 1.09 | 0.883 | 0.807 | 0.875 | 1.03 | 0.65 | 0.785 | 0.796 | 0.855 | 0.772 | 0.748
LXF-289 | 1 | 1.04 | 0.732 | 0.902 | 0.809 | 1.04 | 0.994 | 0.941 | 1.13 | 1 | 0.986 | 0.906 | 0.98 | 0.722 | 0.994 | 1.05 | 0.704 | 0.875 | 0.834
NCI-H23 | 0.995 | 0.85 | 0.832 | 0.832 | 0.831 | 1.06 | 0.843 | 1.11 | 1.14 | 1.01 | 0.838 | 0.721 | 0.799 | 0.543 | 1.01 | 1.1 | 0.753 | 0.863 | 0.961
NCI-H322M | 0.923 | 0.904 | 0.998 | 1.15 | 1.41 | 1.02 | 0.951 | 0.767 | 1.03 | 1.1 | 0.952 | 0.986 | 0.95 | 0.788 | 1.06 | 1.04 | 1.06 | 1.09 | 1.44
NCI-H358 | 0.92 | 0.99 | 1.11 | 1.37 | 1.01 | 1.07 | 0.872 | 0.832 | 0.984 | 0.846 | 0.654 | 0.598 | 0.583 | 0.435 | 0.596 | 0.777 | 1 | 0.936 | 0.52
NCI-H522 | 0.872 | 0.96 | 0.934 | 0.944 | 0.875 | 0.969 | 0.992 | 0.972 | 1.07 | 0.922 | 0.827 | 0.755 | 1.11 | 0.815 | – | – | – | – | –
NCI-H1648 | 0.748 | 0.972 | 0.744 | 0.978 | 1.11 | 0.735 | 0.803 | – | 0.975 | 1.14 | 1.08 | 0.726 | 0.597 | 0.641 | – | – | – | – | –
NCI-H1792 | 0.738 | 0.903 | 0.827 | 0.823 | 0.669 | 0.929 | 1.01 | – | 1.28 | 1.11 | 0.833 | 0.766 | 0.746 | 0.456 | – | – | – | – | –
